{"source": "patent US11117900B2", "about": "(Vertex Pharmaceuticals Incorporated, priority 2012, dated 2021)"}
{"system": "HCT116 colorectal cancer cells", "experiment": "Cisplatin sensitization assay (96 h MTS cell viability);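 note: compound concentration needed to lower the IC50 of Cisplatin alone by a set fold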", "type": "cell-based", "conditions": "Cisplatin sensitization value", "in_short": "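The MTS viability read, after 1 h with reagent, followed 96 h of co-treatment at 37° C. in 5% CO2. Both compound and cisplatin were titrated 2-fold from a 10 μM top final concentration in a complete concentration matrix on HCT116 cells. Scores +++/++/+ reflect cisplatin sensitization value ranges.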"}
{"molecule": "COC1CN(C(=O)C2CCN(c3c(F)cncc3NC(=O)c3c(N)nn4cc(F)cnc34)CC2)C1", "note": "[I-G-21, 2-amino-6-fluoro-N-(5-fluoro-4-(4-(3-methoxyazetidine-1-carbonyl)piperidin-1-yl)pyridin-3-yl)pyrazolo[1,5-a]pyrimidine-3-carboxamide]", "Cisplatin Sensitization Assay": "+++ (Compounds with a Cisplatin sensitization value of <0.02 μM are marked with “+++.”)"}
{"molecule": "CN(C)C1CN(C(=O)C2CCN(c3c(F)cncc3NC(=O)c3c(N)nn4cc(F)cnc34)CC2)C1", "note": "[I-G-22, 2-amino-N-(4-(4-(3-(dimethylamino)azetidine-1-carbonyl)piperidin-1-yl)-5-fluoropyridin-3-yl)-6-fluoropyrazolo[1,5-a]pyrimidine-3-carboxamide]", "Cisplatin Sensitization Assay": "+++ (Compounds with a Cisplatin sensitization value of <0.02 μM are marked with “+++.”)"}
{"molecule": "CN1CC(NC(=O)C2CCN(c3c(F)cncc3NC(=O)c3c(N)nn4cc(F)cnc34)CC2)C1", "note": "[I-G-23, 2-amino-6-fluoro-N-(5-fluoro-4-(4-((1-methylazetidin-3-yl)carbamoyl)piperidin-1-yl)pyridin-3-yl)pyrazolo[1,5-a]pyrimidine-3-carboxamide]", "Cisplatin Sensitization Assay": "+++ (Compounds with a Cisplatin sensitization value of <0.02 μM are marked with “+++.”)"}
{"molecule": "CN1CCC(NC(=O)C2CCN(c3c(F)cncc3NC(=O)c3c(N)nn4cc(F)cnc34)CC2)C1", "note": "(stereo not drawn) [I-G-24, 2-amino-6-fluoro-N-(5-fluoro-4-(4-((1-methylpyrrolidin-3-yl)carbamoyl)piperidin-1-yl)pyridin-3-yl)pyrazolo[1,5-a]pyrimidine-3-carboxamide]", "Cisplatin Sensitization Assay": "+++ (Compounds with a Cisplatin sensitization value of <0.02 μM are marked with “+++.”)"}
{"molecule": "CN1CCN(C(=O)C2(C#N)CCN(c3c(F)cncc3NC(=O)c3c(N)nn4cc(F)cnc34)CC2)CC1", "note": "[I-G-25, 2-amino-N-(4-(4-cyano-4-(4-methylpiperazine-1-carbonyl)piperidin-1-yl)-5-fluoropyridin-3-yl)-6-fluoropyrazolo[1,5-a]pyrimidine-3-carboxamide]", "Cisplatin Sensitization Assay": "+++ (Compounds with a Cisplatin sensitization value of <0.02 μM are marked with “+++.”)"}
{"molecule": "CN(C)CCCNC(=O)C1CCN(c2c(F)cncc2NC(=O)c2c(N)nn3cc(F)cnc23)CC1", "note": "[I-G-26, 2-amino-N-(4-(4-((3-(dimethylamino)propyl)carbamoyl)piperidin-1-yl)-5-fluoropyridin-3-yl)-6-fluoropyrazolo[1,5-a]pyrimidine-3-carboxamide]", "Cisplatin Sensitization Assay": "++ (Compounds with a Cisplatin sensitization value >0.02 μM but <0.2 μM are marked with “++.”)"}
{"molecule": "CC1(C)CN(C(=O)C2CCN(c3c(F)cncc3NC(=O)c3c(N)nn4cc(F)cnc34)CC2)CCN1", "note": "[I-G-27, 2-amino-N-(4-(4-(3,3-dimethylpiperazine-1-carbonyl)piperidin-1-yl)-5-fluoropyridin-3-yl)-6-fluoropyrazolo[1,5-a]pyrimidine-3-carboxamide]", "Cisplatin Sensitization Assay": "++ (Compounds with a Cisplatin sensitization value >0.02 μM but <0.2 μM are marked with “++.”)"}
{"molecule": "Nc1nn2cc(F)cnc2c1C(=O)Nc1cncc(F)c1N1CCC(C(=O)N2CCNC3(CC3)C2)CC1", "note": "[I-G-28, N-(4-(4-(4,7-diazaspiro[2.5]octane-7-carbonyl)piperidin-1-yl)-5-fluoropyridin-3-yl)-2-amino-6-fluoropyrazolo[1,5-a]pyrimidine-3-carboxamide]", "Cisplatin Sensitization Assay": "+++ (Compounds with a Cisplatin sensitization value of <0.02 μM are marked with “+++.”)"}
{"molecule": "CN(C)C(=O)C1CCN(c2c(F)cncc2NC(=O)c2c(N)nn3cc(F)cnc23)CC1", "note": "[I-G-29, 2-amino-N-(4-(4-(dimethylcarbamoyl)piperidin-1-yl)-5-fluoropyridin-3-yl)-6-fluoropyrazolo[1,5-a]pyrimidine-3-carboxamide]", "Cisplatin Sensitization Assay": "+++ (Compounds with a Cisplatin sensitization value of <0.02 μM are marked with “+++.”)"}
